Assay results: patent publication US5196568A, “Compounds useful in enzymatic resolution systems and their preparation” (priority 1988, dated 1993)
Counter-ions that a name gives are not always drawn. Blank lines part the entries; values can stand above or below the molecule they belong to.

Key:
[1] = test system: Protease XVI from Bacillus subtilis (Enzyme C); assay: Homogeneous aqueous enzymatic resolution with Enzyme C; type: biochemical; details: 100 mg enzyme C, 10 mmol ester in 100 ml 0.2M phosphate buffer pH 7.0, 20 hours, 20-22 C
[2] = cited from earlier work
[3] = test system: Protease XXIII from Aspergillus oryzae (Enzyme A); assay: Homogeneous aqueous enzymatic resolution (ester hydrolysis) with Enzyme A; type: biochemical
Method: No further purification was performed.

[4] = molecular target: T1, Protease VIII "Subtilopeptidase A" (subtilisin Carlsberg) (Enzyme B) (Bacillus licheniformis, UniProt P00780); assay: Homogeneous aqueous enzymatic resolution with Enzyme B; type: biochemical
T1 sequence (P00780 106-379): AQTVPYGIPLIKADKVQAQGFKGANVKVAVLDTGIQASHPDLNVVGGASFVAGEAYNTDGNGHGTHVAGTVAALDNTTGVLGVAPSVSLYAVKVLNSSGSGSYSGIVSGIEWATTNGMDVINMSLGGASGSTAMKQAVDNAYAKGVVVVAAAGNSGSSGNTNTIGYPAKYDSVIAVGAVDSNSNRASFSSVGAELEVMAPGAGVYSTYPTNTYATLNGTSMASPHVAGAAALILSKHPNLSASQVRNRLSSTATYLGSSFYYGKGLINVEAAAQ

[5] = Solubility of esters, absorbance of saturated solutions at 262 nm; type: physicochemical; details: saturated solution, pH 7 (50 mM phosphate buffer), room temperature
[6] = test system: Protease XXIII from Aspergillus oryzae (Enzyme A); assay: Rates of hydrolysis of the two enantiomers, pH stat, Enzyme A; type: biochemical; details: for Rate (hydrolysis): 50 mM ester, pH 7.6
Method: 15 ml of a solution containing one enantiomer of the ester at a concentration of 50 mM, and Na3 PO4 buffer at 50 mM and pH 7.6 was observed using a pH stat device. 0.1 ml of a 50 mg/ml solution of enzyme A, made up from
(§1) the commercially available preparation in 50 mM Na3 PO4 buffer at pH 7.6, were added. Rates of hydrolysis of both enantiomers of the ester compound were determined for the enzyme. The ratio of the rates of hydrolysis for the two enantiomers for the two enantiomers with respect to the enzyme indicate the stereospecificity of that enzyme's hydrolytic action on the racemic mixture of the ester. No evidence for the hydrolysis of the acetylthio ester portion of the substrate molecule was found.

[7] = molecular target: T2, Protease VIII "Subtilopeptidase A" (Enzyme B) (Bacillus licheniformis, UniProt P00780); assay: Rates of hydrolysis of the two enantiomers, pH stat, Enzyme B; type: biochemical; details: for Rate (hydrolysis): 50 mM ester, 50 mM Na3PO4 buffer pH 7.6
T2 sequence (P00780 106-379): T1 sequence (P00780 106-379)
Method: as §1, with “15 ml of a solution containing one enantiomer of the ester at a concentration of 50 mM, and Na3 PO4 buffer at 50 mM and pH 7.6 was observed using a pH stat device. 0.1 ml of a 50 mg/ml solution of enzyme B, made up from the commercially” for “the commercially”

[8] = molecular target: T3, Protease XXIV bacterial protease (Enzyme J) (Bacillus licheniformis, UniProt P00780); assay: Rates of hydrolysis of the two enantiomers, pH stat, Enzyme J; type: biochemical; details: for Rate (hydrolysis): 50 mM ester, pH 7.6
T3 sequence (P00780 106-379): T1 sequence (P00780 106-379)
Method: as §1, with “15 ml of a solution containing one enantiomer of the ester at a concentration of 50 mM, and Na3 PO4 buffer at 50 mM and pH 7.6 was observed using a pH stat device. 0.1 ml of a 50 mg/ml solution of Enzyme J, made up from the commercially” for “the commercially”

[9] = test system: Protease XIV from Streptomyces griseus (Enzyme I); assay: Rates of hydrolysis of the two enantiomers, pH stat, Enzyme I; type: biochemical; details: for Rate (hydrolysis): 50 mM ester, pH 7.6
Method: as §1, with “15 ml of a solution containing one enantiomer of the ester at a concentration of 50 mM, and Na3 PO4 buffer at 50 mM and pH 7.6 was observed using a pH stat device. 0.1 ml of a 50 mg/ml solution of protease enzyme I, made up from the commercially” for “the commercially”, “for the protease enzyme. The” for “for the enzyme. The”

[10] = molecular target: T4, Protease XXVII "Nagarse" (Enzyme D) (Bacillus amyloliquefaciens, UniProt P00782); assay: Rates of hydrolysis of the two enantiomers, pH stat, Enzyme D; type: biochemical; details: for Rate (hydrolysis): 50 mM ester, pH 7.6
T4 construct: purchased Protease XXVII
T4 sequence (P00782 108-382): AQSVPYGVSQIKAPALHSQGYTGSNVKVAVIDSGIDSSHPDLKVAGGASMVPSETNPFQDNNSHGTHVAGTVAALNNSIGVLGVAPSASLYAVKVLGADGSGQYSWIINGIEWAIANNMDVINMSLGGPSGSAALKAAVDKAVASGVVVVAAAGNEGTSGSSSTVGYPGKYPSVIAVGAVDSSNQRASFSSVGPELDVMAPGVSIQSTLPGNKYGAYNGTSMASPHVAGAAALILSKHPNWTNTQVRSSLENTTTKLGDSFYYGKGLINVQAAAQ
Method: as §1, with “15 ml of a solution containing one enantiomer of the ester at a concentration of 50 mM, and Na3 PO4 buffer at 50 mM and pH 7.6 was observed using a pH stat device. 0.1 ml of a 50 mg/ml solution of enzyme D, made up from the commercially” for “the commercially”, “of the thioacetyl ester portion” for “of the acetylthio ester portion”

Pig Liver Esterase (E) = assay: Homogeneous aqueous enzymatic resolution with Enzyme E; type: biochemical; details: 30 mg Pig Liver Esterase
[11] = molecular target: T4, Protease XXVII "Nagarse" (Enzyme D); assay: Homogeneous aqueous enzymatic resolution with Enzyme D; type: biochemical; details: acid product (R); 150 mg enzyme D, pH 7.8

% CONVERSION [1]: 5.3%
SMILES: CC(C)Cc1ccc(C(C)C(=O)OCCOP(=O)(O)O)cc1 (stereo not drawn) [Compound 5, Disodium Salt of the Phosphoric Acid Ester of the 2-Hydroxyethyl Ester of 2-(4-Isobutylphenyl)propanoic Acid]

SMILES: CC(C)NCC(O)COc1cccc2ccccc12 [L-form of propranolol, propranolol]
times more potent than the D-enantiomer ([2]; L-form vs D-enantiomer): 100 times

% e.e. ([3]; acid product (R), 150 mg enzyme A, 125 ml buffer pH 7.0, 18 hours): > 99% | % e.e. ([4]; acid product (R), 150 mg enzyme B, 125 ml buffer pH 7.0, 18 hours): 90.0%
SMILES: CC(C)Cc1ccc(C(C)C(=O)OCCS(=O)(=O)O)cc1 (stereo not drawn) [Compound 2, Sodium Salt of 2-Sulfoethyl Ester of 2-(4-Isobutylphenyl)propanoic Acid]

% CONVERSION [1]: 22.0% | Solubility [5]: 1.13 M
SMILES: CC(C)Cc1ccc(C(C)C(=O)OCCCCS(=O)(=O)O)cc1 (stereo not drawn) [Compound 4, Potassium Salt of 4-Sulfobutyl Ester of 2-(4-Isobutylphenyl)propanoic Acid]

% CONVERSION ([3]; 100 mg enzyme A, 10.0 mmol ester in 100 ml 2M Na3PO4 buffer pH 7.0, 25 C, 18 hours): 53% | % e.e. ([3]; acid product (S), 100 mg enzyme A, pH 7.0, 25 C, 18 hours): 3% | % e.e. ([4]; acid product (S), 100 mg enzyme B, pH 7.0, 25 C, 18 hours): 10%
SMILES: CC(CSC(=O)c1ccccc1)C(=O)OCS(=O)(=O)O (racemic) [Compound 16, Potassium Salt of the Sulfomethyl Ester of (±)-S-3-Benzoylthio-2-methylpropanoic Acid]

SMILES: CC(=O)SC[C@H](C)C(=O)OCS(=O)(=O)O [Compound 15, Potassium Salt of the Sulfomethyl Ester of L-(+)-S-3-Acetylthio-2-methylpropanoic Acid]
Rate Ratio L/D [6]: 2.3 | Rate (hydrolysis) [6]: 12 umols/hr/mg | Rate Ratio L/D [7]: 2.1 | Rate (hydrolysis) [7]: 135 umols/hr/mg | Rate Ratio L/D [8]: 1.1 | Rate (hydrolysis) [8]: 65 umols/hr/mg | Rate Ratio L/D [9]: 1.7 | Rate (hydrolysis) [9]: 105 umols/hr/mg | Rate Ratio L/D [10]: 1.1 | Rate (hydrolysis) [10]: 29 umols/hr/mg

SMILES: CC(=O)SC[C@@H](C)C(=O)OCS(=O)(=O)O [Compound 14, Potassium Salt of the Sulfomethyl Ester of D-(-)-S-3-Acetylthio-2-methylpropanoic Acid]
Rate (hydrolysis) [6]: 5.3 umols/hr/mg | Rate (hydrolysis) [7]: 65 umols/hr/mg | Rate (hydrolysis) [8]: 61 umols/hr/mg | Rate (hydrolysis) [9]: 63 umols/hr/mg | Rate (hydrolysis) [10]: 27 umols/hr/mg

% CONVERSION (Pig Liver Esterase (E); 0.010 mol ester in 100 ml 0.2M sodium phosphate buffer at pH 7.8 (heading: pH 7.0)): 12.1% | % e.e. (Pig Liver Esterase (E); acid product (R), pH 7.8 (heading: pH 7.0)): 88.0% | % CONVERSION ([3]; 100 mg enzyme A, 10 mmol ester in 100 ml 0.2M phosphate buffer pH 7.0, 20 hours, 20-22 C): 50.0% | conversion of the racemic ester to acid ([3]; 1.00 gm enzyme A, about 1 M ester, 0.1M potassium phosphate pH 7.0, 23.9 hours, room temperature, by NaOH titration): 29% | % e.e. [11]: 91.0%
SMILES: CC(C)Cc1ccc(C(C)C(=O)OCCCS(=O)(=O)O)cc1 (stereo not drawn) [Compound 3, Potassium Salt of 3-Sulfopropyl Ester of 2-(4-Isobutylphenyl)propanoic Acid]

SMILES: COc1ccc2cc([C@H](C)C(=O)O)ccc2c1 (stereo in doubt) [naproxen, (+)-S-2-(6-methoxy-2-naphthyl)propanoic acid]
times more therapeutically potent than its R(-) counterpart ([2]; S(+) enantiomer vs R(-)): 28 times
